Test results published in patent US8389539B2, “Azacyclic derivatives” (Hoffman-La Roche Inc., priority 2009, dated 2013).

Biological target: T1, human HSL (Homo sapiens, UniProt Q05469)
T1 construct: overlapping PCR to generate a full length human HSL ORF with a 3′-His6 tag; His6 (C); made in house; host or cells: High 5 insect cells (baculovirus, pFast-BAC)
T1 sequence (Q05469 1-1076): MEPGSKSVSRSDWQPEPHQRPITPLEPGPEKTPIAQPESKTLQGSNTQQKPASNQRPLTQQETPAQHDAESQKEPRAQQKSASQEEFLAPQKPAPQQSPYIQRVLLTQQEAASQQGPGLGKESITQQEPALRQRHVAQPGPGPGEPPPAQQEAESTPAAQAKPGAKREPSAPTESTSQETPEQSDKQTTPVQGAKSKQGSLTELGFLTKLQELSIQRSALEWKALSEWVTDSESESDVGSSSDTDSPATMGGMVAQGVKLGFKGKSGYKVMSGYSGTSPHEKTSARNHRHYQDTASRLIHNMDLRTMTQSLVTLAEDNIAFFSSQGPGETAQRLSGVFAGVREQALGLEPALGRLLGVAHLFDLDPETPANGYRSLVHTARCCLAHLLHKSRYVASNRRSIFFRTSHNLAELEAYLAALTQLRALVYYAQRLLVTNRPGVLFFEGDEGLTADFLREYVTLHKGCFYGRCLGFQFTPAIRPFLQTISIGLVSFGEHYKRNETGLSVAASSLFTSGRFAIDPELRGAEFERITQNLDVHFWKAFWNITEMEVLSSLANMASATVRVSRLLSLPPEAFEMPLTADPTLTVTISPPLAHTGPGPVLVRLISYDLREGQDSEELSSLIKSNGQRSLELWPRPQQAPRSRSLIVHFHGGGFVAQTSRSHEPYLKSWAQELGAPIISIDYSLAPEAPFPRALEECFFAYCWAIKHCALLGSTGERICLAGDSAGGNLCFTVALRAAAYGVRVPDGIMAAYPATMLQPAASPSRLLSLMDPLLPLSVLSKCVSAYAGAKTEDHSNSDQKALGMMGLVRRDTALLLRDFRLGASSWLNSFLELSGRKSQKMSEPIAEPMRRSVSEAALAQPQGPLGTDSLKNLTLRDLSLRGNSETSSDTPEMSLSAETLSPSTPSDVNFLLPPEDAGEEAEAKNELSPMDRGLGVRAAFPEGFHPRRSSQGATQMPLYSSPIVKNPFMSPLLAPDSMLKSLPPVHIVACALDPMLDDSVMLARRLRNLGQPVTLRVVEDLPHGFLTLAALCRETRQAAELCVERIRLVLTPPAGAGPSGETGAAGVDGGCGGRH
Experiment: Human Hormone-Sensitive Lipase (HSL) enzyme inhibition assay (colorimetric, DMPT substrate)
Type: biochemical
Details: human full length HSL-His6, 2,3-dimercapto-1-propanol tributyrate substrate, 37° C. 20 minutes, absorbance at 405 nm; read-out: HSL hum IC50
Experimental: 1) Cloning: cDNA was prepared from commercial human brain polyA+ RNA and used as a template in overlapping PCR to generate a full length human HSL ORF with a 3′-His6 tag. This full length insert was cloned into the pFast-BAC vector and the DNA-sequence of several single clones was verified. DNA from a correct full length clone with the 3′His6 tag was used to transform the E. coli strain DH10BAC. Resulting bacmid DNA was used to generate a titered baculovirus stock for protein generation.
Cells were thawed. […] was done at 3×30 sec., Lubrol PX was added to 0.2% final concentration followed by stirring for 15 min. at 4° C. and centrifugation at 25 k×g, 60 min., 4° C. […] Supernatant was removed, the resin washed in the centrifuge vessel using 5 volumes of Base Buffer containing 0.2% Lubrol PX. Centrifugation was done again, then the supernatant discarded. The resin was poured onto a 0.8 μm membrane in a disposable filter unit (Nalge 450-0080), and washed with 5 volumes of Base Buffer containing 0.2% Lubrol PX. It was then washed with 30 volumes of Base Buffer containing 60 mM imidazole pH 7.5 at 4° C. The protein was eluated with 5 volumes of 25 mM Tris-Cl, 300 mM NaCl, 200 mM imidazole, 10 mM 2-mercaptoethanol, pH 7.5 at 4° C. by tumbling resin with buffer end-over-end, 30 min., 4° C. The resin was captured on a 0.2 μm membrane disposable filter unit (Millipore SCGP U02 RE) and the eluate collected in the reservoir. The eluate was concentrated using a 30 k MWCO centrifugal filter device (Sartorius Vivascience Vivacell 100, VC1022), to 20 ml. It was then dialyzed overnight at 4° C., two times against 2 L of 10% glycerol, 25 mM Tris-Cl, 300 mM NaCl, 0.2 mM EDTA, 0.2 mM DTT, pH 7.5 at 4° C. The protein was filtered using a 0.22 μm disposable filter unit (Millipore SCGP00525). The protein concentration was calculated from absorbance at 280 nm, using 280=0.67 cm-1 mg-1. […] The protein was stored at −80° C.
Human Hormone-Sensitive Lipase (HSL) Enzyme Inhibition Assay:
HSL enzyme activity was measured by a colorimetric assay using 2,3-dimercapto-1-propanol tributyrate (Aldrich, St. Louis, Mo.) as a substrate. Typically, 1.5 mM 2,3-dimercapto-1-propanol tributyrate (DMPT) in 100 mM MOPS, pH 7.2, 0.2 mg/ml fatty acid-free BSA was prepared by sonication at 4° C. to homogenous suspension. Test compounds (2 mM stock in DMSO) were diluted 3 fold in series in DMSO. Compound solutions were diluted 24 fold in 1.5 mM DMPT containing solution and 18 ul per well was added to 384-well microplates (Corning Costar). Twelve microliters per well of human HSL (15 ug/ml) was added and the reaction mixture was incubated at 37° C. for 20 minutes. Six microliters of 12 mM dithio-bis-(2-nitrobenzoic acid) (DTNB) in DMSO plus 1.2% SDS and 0.6% Triton X-100 were added and the mixture was incubated at room temperature for 15 minutes. Product production was monitored by reading absorbance at 405 nm on an Envision Reader (PerkinElmer Life and Analytical Sciences, Shelton, Conn.).

Row | IC50 [µM] | SMILES
1 | 0.035 | O=C1N(c2ccc(OCC(F)(F)F)cc2)CCC12CCN(CC(O)c1c(F)cccc1Cl)CC2 (stereo not shown) [Example 47, 8-[2-(2-Chloro-6-fluoro-phenyl)-2-hydroxy-ethyl]-2-[4-(2,2,2-trifluoro-ethoxy)-phenyl]-2,8-diaza-spiro[4.5]decan-1-one]
2 | 0.98 | CC(c1ccccc1)N1CCC2(CCN(c3ccc(C4CC4)cc3Cl)C2=O)CC1 (stereo not shown) [Example 6, 2-(2-Chloro-4-cyclopropyl-phenyl)-8-(1-phenyl-ethyl)-2,8-diaza-spiro[4.5]decan-1-one]
3 | 0.17 | CC(c1cccc(C(F)(F)F)c1)N1CCC2(CCN(c3ccc(C4CC4)cc3)C2=O)CC1 (stereo not shown) [Example 5, 2-(4-Cyclopropyl-phenyl)-8-[1-(3-trifluoromethyl-phenyl)-ethyl]-2,8-diaza-spiro[4.5]decan-1-one]
4 | 0.03 | O=C1N(c2ccc(C3CC3)cc2)CCC12CCN(CC(O)c1ccc(Cl)c(Cl)c1)CC2 (stereo not shown) [Example 37, 2-(4-Cyclopropyl-phenyl)-8-[2-(3,4-dichloro-phenyl)-2-hydroxy-ethyl]-2,8-diaza-spiro[4.5]decan-1-one]
5 | 0.05 | CCC(C(=O)Nc1ccc(F)cc1)N1CCC2(CCN(c3ccc(C4CC4)cc3)C2=O)CC1 (stereo not shown) [Example 26, 2-[2-(4-Cyclopropyl-phenyl)-1-oxo-2,8-diaza-spiro[4.5]dec-8-yl]-N-(4-fluoro-phenyl)-butyramide]
6 | 0.46 | CCCCNC(=O)CCN1CCC2(CC1)CCN(c1ccc(C3CC3)cc1)C2=O [Example 18, N-Butyl-3-[2-(4-cyclopropyl-phenyl)-1-oxo-2,8-diaza-spiro[4.5]dec-8-yl]-propionamide]
7 | 0.02 | C[C@H](Oc1ccc(N2CCC3(CCN(CC(O)c4ccc(Cl)cc4Cl)CC3)C2=O)cc1)C(F)(F)F (stereo partly drawn) [Example 52, 8-[2-(2,4-Dichloro-phenyl)-2-hydroxy-ethyl]-2-[4-((S)-2,2,2-trifluoro-1-methyl-ethoxy)-phenyl]-2,8-diaza-spiro[4.5]decan-1-one]
8 | 0.03 | O=C1N(c2ccc(C3CC3)cc2)CCC12CCN(CC(O)c1ccc(Cl)cc1Cl)CC2 (stereo not shown) [Example 38, 2-(4-Cyclopropyl-phenyl)-8-[2-(2,4-dichloro-phenyl)-2-hydroxy-ethyl]-2,8-diaza-spiro[4.5]decan-1-one]
9 | 0.32 | CN(C(=O)CCN1CCC2(CC1)CCN(c1ccc(C3CC3)cc1)C2=O)C1CCCCC1 [Example 22, N-Cyclohexyl-3-[2-(4-cyclopropyl-phenyl)-1-oxo-2,8-diaza-spiro[4.5]dec-8-yl]-N-methyl-propionamide]
10 | 0.03 | CCCCNC(=O)C(C)N1CCC2(CCN(c3ccc(C4CC4)cc3)C2=O)CC1 (stereo not shown) [Example 27, N-Butyl-2-[2-(4-cyclopropyl-phenyl)-1-oxo-2,8-diaza-spiro[4.5]dec-8-yl]-propionamide]
11 | 0.011 | CCCCNC(=O)[C@@H](CCCC)N1CCC2(CCN(c3ccc(C4CC4)cc3)C2=O)CC1 [Example 42, (R)-2-[2-(4-Cyclopropyl-phenyl)-1-oxo-2,8-diaza-spiro[4.5]dec-8-yl]-hexanoic acid butylamide]
12 | 0.03 | O=C(CN1CCC2(CC1)CCN(c1ccc(C3CC3)cc1)C2=O)NCc1ccc(C(F)(F)F)cc1 [Example 12, 2-[2-(4-Cyclopropyl-phenyl)-1-oxo-2,8-diaza-spiro[4.5]dec-8-yl]-N-(4-trifluoromethyl-benzyl)-acetamide]
13 | 0.09 | CN(Cc1ccccc1)C(=O)CCN1CCC2(CC1)CCN(c1ccc(C3CC3)cc1)C2=O [Example 21, N-Benzyl-3-[2-(4-cyclopropyl-phenyl)-1-oxo-2,8-diaza-spiro[4.5]dec-8-yl]-N-methyl-propionamide]
14 | 0.04 | O=C1N(c2ccc(OC(F)(F)F)cc2)CCC12CCN(Cc1ccccc1)CC2 [Example 8, 8-Benzyl-2-(4-trifluoromethoxy-phenyl)-2,8-diaza-spiro[4.5]decan-1-one]
15 | 0.043 | C[C@H](Oc1ccc(N2CCC3(CCN(CC(O)c4ccc(Cl)cc4Cl)CC3)C2=O)cn1)C(F)(F)F (stereo partly drawn) [Example 53, 8-[2-(2,4-Dichloro-phenyl)-2-hydroxy-ethyl]-2-[6-((S)-2,2,2-trifluoro-1-methyl-ethoxy)-pyridin-3-yl]-2,8-diaza-spiro[4.5]decan-1-one]
16 | 0.036 | CCc1ccc(N2CCC3(CCN(CC(=O)c4ccc(Cl)cc4Cl)CC3)C2=O)cc1 [Example 43, 8-[2-(2,4-Dichloro-phenyl)-2-oxo-ethyl]-2-(4-ethyl-phenyl)-2,8-diaza-spiro[4.5]decan-1-one]
17 | 0.08 | O=C(CN1CCC2(CC1)CCN(c1ccc(C3CC3)cc1)C2=O)Nc1ccc(F)cc1 [Example 13, 2-[2-(4-Cyclopropyl-phenyl)-1-oxo-2,8-diaza-spiro[4.5]dec-8-yl]-N-(4-fluoro-phenyl)-acetamide]
18 | 0.023 | C[C@@H](Oc1ccc(N2CCC3(CCN(CC(O)c4c(F)cccc4Cl)CC3)C2=O)cc1)C(F)(F)F (stereo partly drawn) [Example 48, 8-[2-(2-Chloro-6-fluoro-phenyl)-2-hydroxy-ethyl]-2-[4-((R)-2,2,2-trifluoro-1-methyl-ethoxy)-phenyl]-2,8-diaza-spiro[4.5]decan-1-one]
19 | 0.022 | C[C@@H](Oc1ccc(N2CCC3(CCN(CC(O)c4ccc(Cl)cc4Cl)CC3)C2=O)cn1)C(F)(F)F (stereo partly drawn) [Example 45, 8-[2-(2,4-Dichloro-phenyl)-2-hydroxy-ethyl]-2-[6-((R)-2,2,2-trifluoro-1-methyl-ethoxy)-pyridin-3-yl]-2,8-diaza-spiro[4.5]decan-1-one]
20 | 0.026 | O=C1N(c2ccc(OCC(F)(F)F)cc2)CCC12CCN(CC(O)c1ccc(Cl)cc1Cl)CC2 (stereo not shown) [Example 44, 8-[2-(2,4-Dichloro-phenyl)-2-hydroxy-ethyl]-2-[4-(2,2,2-trifluoro-ethoxy)-phenyl]-2,8-diaza-spiro[4.5]decan-1-one]
21 | 0.019 | O=C1N(c2ccc(CC(F)(F)F)cc2)CCC12CCN(CC(O)c1ccc(Cl)cc1Cl)CC2 (stereo not shown) [Example 46, 8-[2-(2,4-Dichloro-phenyl)-2-hydroxy-ethyl]-2-[4-(2,2,2-trifluoro-ethyl)-phenyl]-2,8-diaza-spiro[4.5]decan-1-one]

Row | SMILES | IC50 [µM]
22 | O=C1N(c2ccc(C3CC3)cc2)CCC12CCN(CCc1ccccc1)CC2 [Example 2, 2-(4-Cyclopropyl-phenyl)-8-phenethyl-2,8-diaza-spiro[4.5]decan-1-one] | 0.07
